From patent publication US20250186541A1, “DLL3 TARGETING PEPTIDES AND CONSTRUCTS THEREOF” (MARIANA ONCOLOGY INC., priority 2023, published 2025)
Numbered stars: 1 amine (or outer) side, 2 acyl side, 3 side chain; on linkers, the order of the positions; unused ones are H or OH. Bridge positions count the residues as written; N and C are the ends. Square brackets hold non-standard residues; d marks the D form. Peptide text beside a SMILES is read from it. * marks the point of attachment. Ala(piperidin-4-yl) = O=C([C@H](CC1CCN([*:3])CC1)N[*:1])[*:2]; DOTA = O=C(O)CN1CCN(CC(=O)O)CCN(CC(=O)*)CCN(CC(=O)O)CC1; Phe(4-CH2NH2) = NCc1ccc(C[C@H](N)C(=O)O)cc1; 1Nal = N[C@@H](Cc1cccc2ccccc12)C(=O)O; 2Nal = N[C@@H](Cc1ccc2ccccc2c1)C(=O)O; Phe(2-Me) = Cc1ccccc1C[C@H](N)C(=O)O; tBuAla = CC(C)(C)C[C@H](N)C(=O)O; AllylGly = C=CC[C@H](N)C(=O)O; Chg = N[C@H](C(=O)O)C1CCCCC1; αMeP = C[C@@]1(C(=O)O)CCCN1; NMeS = CN[C@@H](CO)C(=O)O; Ahx = NCCCCCC(=O)O

Legend:
[1] = test system: SHP-77 cells; assay: Internalization of [177Lu]Lu-labeled peptide after glycine acid wash, gamma counter internalized fraction; format: cell-based, human; conditions: [177Lu]Lu-test peptide, 1 h, 37° C., acid wash 50 mM Glycine pH 2.5
Protocol: (§1) Example 4. Cell Binding, Internalization, and Radiolabeling of Targeting Moieties Polypeptides General Procedure for Radiolabeling of RPTs with [^177Lu]LuCl3
(§2) [^177Lu]LuCl3 was received from venders in HCl solution. For every mCi of [^177Lu]LUCl3 added to the reaction vial (1.5 mL Eppendorf vial), ammonium acetate buffer (0.2 M, pH 4.9, 100 μL, containing 1% w/v ascorbic acid and 6% v/v ethanol) and peptide conjugate (1 nmol) was added. The pH of the solution was determined to be approximately 5 by using pH strips. The reaction vial was incubated at 80° C., 700 RPM for 17-20 minutes. A sample from the reaction was analyzed by RP-HPLC using an Agilent Infinity II 1260 HPLC to determine reaction completion and radiochemical purity. HPLC conditions: Waters XBridge BEH […] Column, 130 Å, 3.5 um, 4.6 mm×250 mm; mobile phase: Solvent A=water (with 0.1% formic acid), solvent B=acetonitrile (with 0.1% formic acid). Gradients: 25-45% B in 10 minutes, 45-65% B in 12 minutes, 65-90% in 6 minutes at a flow rate of 0.5 mL/min. Required amounts of the product was formulated in 1% PBSA for cell studies.
(§3) The study was conducted using SHP-77cells (Table 7) Adherent cell studies: The cells were cultured in appropriate culture media (20 mL) in tissue culture treated T150 flasks at 37° C. and 5% CO2. Adherent cells were detached (60-70% confluent) using 5 mL Versene at 37° C. for 3 min. After confirming the viability using countess and count of detached cells using Trypan blue, the cells were centrifuged at 4° C. for 5 minutes (1,000 rpm). The cell pellet obtained was washed once with PBS and resuspended in 1% PBSA to obtain the desired cell concentration (5-25 million cells/mL).
as §3, with “Suspension” for “The study was conducted using SHP-77cells (Table 7) Adherent”, “CO2.” for “CO2. Adherent cells were detached (60-70% confluent) using 5 mL Versene at 37° C. for 3 min.”, “viability” for “viability using countess”
(§4) Cell numbers used for the assay were in the range of 5 million cells/condition −25 million cells/condition.
Internalization: The resuspended cells in 300 μl of 1% PBSA and counted in the gamma counter as “bound fraction” were collected in 1.5 ml Eppendorf tube and pelleted. The pelleted cells were incubated with 300 μl of 50 mM Glycine pH=2.5 for 3 minutes and then pelleted discarding the supernatant. This process was repeated one more time. The pelleted cells were washed with 300 μl of cold 1% PBSA and then resuspended in 300 μl 0.3M NaOH. This was counted in the gamma counter as “internalized fraction”.
(§5) SHP-77 cells are human-derived, non-engineered SCLC cells.

[2] = molecular target: T1, human DLL3 (Homo sapiens, UniProt Q9NYJ7); assay: Affinity determination by Surface Plasmon Resonance (SPR), Biacore, 1:1 binding model; conditions: biotinylated human DLL3 on streptavidin chip, 25° C.; NB = nonbinding
T1 construct: biotin (biotinylated)
T1 sequence (Q9NYJ7 27-618): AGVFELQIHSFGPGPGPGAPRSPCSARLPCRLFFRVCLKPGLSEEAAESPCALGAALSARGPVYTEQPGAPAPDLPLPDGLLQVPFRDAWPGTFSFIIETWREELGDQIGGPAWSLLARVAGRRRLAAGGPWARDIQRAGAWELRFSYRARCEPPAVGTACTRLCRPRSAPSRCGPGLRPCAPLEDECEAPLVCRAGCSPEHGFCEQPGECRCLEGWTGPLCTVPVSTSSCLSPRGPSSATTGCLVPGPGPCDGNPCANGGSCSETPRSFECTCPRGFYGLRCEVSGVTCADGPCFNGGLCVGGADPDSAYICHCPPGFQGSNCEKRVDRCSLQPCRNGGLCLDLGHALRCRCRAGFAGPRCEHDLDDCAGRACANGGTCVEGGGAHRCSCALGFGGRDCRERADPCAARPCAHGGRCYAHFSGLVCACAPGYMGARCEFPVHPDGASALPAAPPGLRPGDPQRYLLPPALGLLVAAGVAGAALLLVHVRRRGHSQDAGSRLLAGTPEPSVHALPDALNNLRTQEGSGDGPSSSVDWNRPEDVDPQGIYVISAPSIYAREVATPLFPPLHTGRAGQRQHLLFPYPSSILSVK
Procedure, shortened: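 SPR with biotinylated human DLL3 captured on a streptavidin chip, with a reference surface subtracted. Samples were injected at several concentrations at 100 μL/min in phosphate buffer with 137 mM NaCl, 2.7 mM KCl, 0.05% P20 and 2% DMSO. Kinetic and affinity constants came from a 1:1 binding fit.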

[3] = test system: SHP-77 cells; assay: Cell binding (total uptake) of [177Lu]Lu-labeled peptide, gamma counter bound fraction; format: cell-based, human; conditions: [177Lu]Lu-test peptide, 1 h, 37° C., 1% PBSA
Protocol: as §1, §2, §3
as §3, with “Suspension” for “The study was conducted using SHP-77cells (Table 7) Adherent”, “CO2.” for “CO2. Adherent cells were detached (60-70% confluent) using 5 mL Versene at 37° C. for 3 min.”, “viability” for “viability using countess”
as §4
Total uptake: Cells were incubated with 300 μL (0.8 μCi) of the incubation buffer (containing radiolabeled peptide [^177Lu]Lu-test peptide) for 1 hour at 37 C (Table 8). Post incubation, the cells were pelleted and washed 2 times using cold PBS+1% BSA. The supernatant and washes were combined and counted together as “unbound fraction” in a gamma counter. The cells were then resuspended in 300 μL of 1% PBS+1% BSA and counted in the gamma counter as “bound fraction”.
as §5

Compound	Kd [2] [nM]	% Internalization (out of bound fraction) [1] [%]	% Binding [3] [%]
CC(=O)N[C@H](C(=O)N[C@@H](CO)C(=O)N[C@@H](CC(=O)O)C(=O)N[C@H]1CSSC[C@@H](C(=O)N2CCC[C@@]2(C)C(=O)N[C@@H](Cc2ccccc2)C(=O)N[C@@H](CC(=O)O)C(=O)N[C@H](CCCCNC(=O)CN2CCN(CC(=O)O)CCN(CC(=O)O)CCN(CC(=O)O)CC2)C(N)=O)NC(=O)[C@H](CC(N)=O)NC(=O)[C@H](Cc2ccc3ccccc3c2)NC(=O)[C@H](CCC(N)=O)NC(=O)[C@H](C2CCCCC2)NC(=O)[C@H](Cc2cccc3ccccc23)NC1=O)C1CCCCC1 [compound 125, Ac-(Chg)-S-D-C(3)-(1Nal)-(Chg)-Q-(2Nal)-N-C(3)-(aMe-P)-F-D-D-Lys(DOTA)-CONH2] (Ac-[Chg]SDC[1Nal][Chg]Q[2Nal]NC[αMeP]FD[dK](DOTA)-NH2; disulfide 4-10)	0.16	51	17
Cc1ccccc1C[C@H](NC(=O)[C@]1(C)CCCN1C(=O)[C@@H]1CSSC[C@H](NC(=O)[C@H](CC(=O)O)NC(=O)[C@H](CO)NC(=O)[C@@H](C)NC(=O)CN2CCN(CC(=O)O)CCN(CC(=O)O)CCN(CC(=O)O)CC2)C(=O)N[C@@H](Cc2cccc3ccccc23)C(=O)N[C@@H](CC(C)(C)C)C(=O)N[C@@H](CCC(N)=O)C(=O)N[C@@H](Cc2ccc3ccccc3c2)C(=O)N[C@@H](CC(N)=O)C(=O)N1)C(=O)N[C@@H](CC(=O)O)C(N)=O [compound 154, DOTA-(D-Ala)-S-D-C(3)-(1Nal)-(t-Bu-Ala)-Q-(2Nal)-N-C(3)-(aMe-P)-(2Me-F)-D-CONH2] ({DOTA}-[dA]SDC[1Nal][tBuAla]Q[2Nal]NC[αMeP][Phe(2-Me)]D-NH2; disulfide 4-10)	0.18	58	10
CC(=O)N[C@H](C)C(=O)N(C)[C@@H](CO)C(=O)N[C@@H](CC(=O)O)C(=O)N[C@H]1C/C=C/C[C@@H](C(=O)N2CCC[C@@]2(C)C(=O)N[C@@H](Cc2ccccc2)C(=O)N[C@@H](CC(=O)O)C(N)=O)NC(=O)[C@H](CC(N)=O)NC(=O)[C@H](Cc2ccc3ccccc3c2)NC(=O)[C@H](Cc2ccc(CNC(=O)CN3CCN(CC(=O)O)CCN(CC(=O)O)CCN(CC(=O)O)CC3)cc2)NC(=O)[C@H](CC(C)(C)C)NC(=O)[C@H](Cc2cccc3ccccc23)NC1=O [compound 195, Ac-(D-Ala)-(NMe-Ser)-D-AllyG(4)-(1Nal)-(t-Bu-Ala)-[PAF(DOTA)]-(2Nal)-N-AllyG(4)-(aMe-P)-F-D-CONH2] (Ac-[dA][NMeS]D[AllylGly][1Nal][tBuAla][Phe(4-CH2NH2)](DOTA)[2Nal]N[AllylGly][αMeP]FD-NH2; staple (E) 4-10)	0.63	43	7

More lines, main results first:

Kd [2] [nM]	Compound	% Internalization (out of bound fraction) [1] [%]	% Binding [3] [%]
0.047	CC(C)(C)C[C@@H]1NC(=O)[C@H](Cc2cccc3ccccc23)NC(=O)[C@@H](NC(=O)[C@H](CC(=O)O)NC(=O)[C@H](CO)NC(=O)CCCCCNC(=O)CN2CCN(CC(=O)O)CCN(CC(=O)O)CCN(CC(=O)O)CC2)CSSC[C@@H](C(=O)N2CCC[C@@]2(C)C(=O)N[C@@H](Cc2ccccc2)C(=O)N[C@@H](CC(=O)O)C(N)=O)NC(=O)[C@H](CC(N)=O)NC(=O)[C@H](Cc2ccc3ccccc3c2)NC(=O)[C@H](CC2CCNCC2)NC1=O [compound 176, DOTA-Ahx-S-D-C(3)-(1Nal)-(t-Bu-Ala)-[3-(4-piperidinyl)-Ala]-(2Nal)-N-C(3)-(aMe-P)-F -D-CONH2] ({DOTA-Ahx}-SDC[1Nal][tBuAla][Ala(piperidin-4-yl)][2Nal]NC[αMeP]FD-NH2; disulfide 3-9)	53	6
0.049	CC(=O)N[C@H](C)C(=O)N[C@@H](CO)C(=O)N[C@@H](CC(=O)O)C(=O)N[C@H]1CSSC[C@@H](C(=O)N2CCC[C@@]2(C)C(=O)N[C@@H](Cc2ccccc2)C(=O)N[C@@H](CC(=O)O)C(=O)N[C@H](CCCCNC(=O)CN2CCN(CC(=O)O)CCN(CC(=O)O)CCN(CC(=O)O)CC2)C(N)=O)NC(=O)[C@H](CC(=O)O)NC(=O)[C@H](Cc2ccc3ccccc3c2)NC(=O)[C@H](C)NC(=O)[C@H](CC(C)(C)C)NC(=O)[C@H](Cc2cccc3ccccc23)NC1=O [compound 166, Ac-(D-Ala)-S-D-C(3)-(1Nal)-(t-Bu-Ala)-Ala-(2Nal)-D-C(3)-(aMe-P)-F-D-[D-Lys(DOTA)]-NH2] (Ac-[dA]SDC[1Nal][tBuAla]A[2Nal]DC[αMeP]FD[dK](DOTA)-NH2; disulfide 4-10)	58	7
0.12	CC(=O)N[C@H](C)C(=O)N[C@@H](CO)C(=O)N[C@@H](CC(=O)O)C(=O)N[C@H]1CSSC[C@@H](C(=O)N2CCC[C@@]2(C)C(=O)N[C@@H](Cc2ccccc2)C(=O)N[C@@H](CC(=O)O)C(N)=O)NC(=O)[C@H](CC(N)=O)NC(=O)[C@H](Cc2ccc3ccccc3c2)NC(=O)[C@H](Cc2ccc(CNC(=O)CN3CCN(CC(=O)O)CCN(CC(=O)O)CCN(CC(=O)O)CC3)cc2)NC(=O)[C@H](CC(C)(C)C)NC(=O)[C@H](Cc2cccc3ccccc23)NC1=O [Cpd #158, Ac-(D-Ala)-S-D-C(3)-(1Nal)-(t-Bu-Ala)-[PAF(DOTA)]-(2Nal)-N-C(3)-(aMe-P)-F -D-CONH2] (Ac-[dA]SDC[1Nal][tBuAla][Phe(4-CH2NH2)](DOTA)[2Nal]NC[αMeP]FD-NH2; disulfide 4-10)	63	25
0.18	CC(=O)N[C@@H](CC1CCNCC1)C(=O)N[C@@H](CO)C(=O)N[C@@H](CC(=O)O)C(=O)N[C@H]1CC=CC[C@@H](C(=O)N2CCC[C@@]2(C)C(=O)N[C@@H](Cc2ccccc2)C(=O)N[C@@H](CC(=O)O)C(N)=O)NC(=O)[C@H](CC(N)=O)NC(=O)[C@H](Cc2ccc3ccccc3c2)NC(=O)[C@H](Cc2ccc(CNC(=O)CN3CCN(CC(=O)O)CCN(CC(=O)O)CCN(CC(=O)O)CC3)cc2)NC(=O)[C@H](CC(C)(C)C)NC(=O)[C@H](Cc2cccc3ccccc23)NC1=O [compound 200, Ac-[3-(4-piperidinyl)-Ala]-S-D-AllyG(4)-(1Nal)-(t-Bu-Ala)-[PAF(DOTA)]-(2Nal)-N-AllyG(4)-(aMe-P)-F-D-CONH2] (Ac-[Ala(piperidin-4-yl)]SD[AllylGly][1Nal][tBuAla][Phe(4-CH2NH2)](DOTA)[2Nal]N[AllylGly][αMeP]FD-NH2; staple 4-10)	46	6
